# Experimental data taken from patent US5160483A, “Fragment of TNF-α for promoting wound healing” (The University of Tennessee Research Corporation, priority 1991, dated 1992).
# Read-outs that look alike come from different tables or passages of the source.
# How the values were obtained:
# [1] = known property of the complete protein; cited from earlier work
# [2] = system: fibroblasts and monocytes; test: Intradermal injection in guinea pigs; assay type: in vivo
# Text: The composition accomplishes this without the problems attendant on the previously developed materials. The fragment includes amino acids 31 through 68 SEQ ID No.: 1 of TNF-α which has the sequence: [drawing 1]
# fibroblasts [3] = test: Chemotaxis of fibroblasts in chemotaxis chambers, fragment in lower compartment (FIG. 1); assay type: cell-based; details: fragment in PBS in lower compartment of chemotaxis chambers
# Description: (§1) Solutions of varying concentrations of the fragment of TNF-α comprising amino acids 31 through 68 SEQ ID No.: 1 in phosphate buffered saline (PBS) were added to the lower compartment of chemotaxis chambers. The number of fibroblasts migrating to the lower compartment was counted. The response curve is bell-shaped, with a maximum at 100 nM. An analysis of the effects of varying concentration gradients of the protein fragment (a Zigmond-Hirsch checkerboard analysis) was performed by adding different concentrations of the fragment to the upper and/or lower compartments of a chemotaxis chamber. The number of fibroblasts migrating to the lower surface of each filter was counted.
# fibroblasts [4] = test: Zigmond-Hirsch checkerboard analysis of fibroblast migration in chemotaxis chamber; assay type: cell-based
# Description: as §1
# The fibroblasts migrate from the upper chamber to the lower chamber since there is very little of the fragment in the upper chamber and there is quite a large concentration of the fragment in the lower chamber. This simulates the condition at a wound site where there has been an application of the fragment to the wound. The concentration of the fragment in the surrounding tissue will be quite low compared to the concentration at the wound site. Therefore, the fibroblasts will migrate from the area of low concentration of the fragment to the area of high concentration.
substance,measurement,setting,value
TNF-α,cytotoxicity,[1],known to be a cytotoxin
"fragment of TNF-α comprising amino acids 31 through 68 SEQ ID No.: 1: 38-residue synthetic polypeptide, amino acids 31 through 68 of TNF-α (SEQ ID No.: 1), about 3,800 Da (RRANALLANGVELRDNQLVVPSEGLYLIYSQVLFKGQG; Tumor necrosis factor, soluble form; UniProt P01375 107-144, looked up, fragment)",cytotoxicity,Cytotoxicity,without any showing of cytotoxicity
same,amount of connective tissue at the injection site,[2],increase in the amount of connective tissue at the injection site
same,migration of fibroblasts and monocytes into the area of the wound,[2],increased migration of fibroblasts and monocytes into the area of the wound
same,concentration at the maximum of the bell-shaped fibroblast migration response curve,fibroblasts [3],100 nM
same,number of fibroblasts migrating to the lower surface of each filter,"fibroblasts [4]; upper compartment 0 nM, lower compartment 21 nM",31 ± 4
same,number of fibroblasts migrating to the lower surface of each filter,"fibroblasts [4]; upper compartment 0 nM, lower compartment 41 nM",57 ± 3
same,number of fibroblasts migrating to the lower surface of each filter,"fibroblasts [4]; upper compartment 0 nM, lower compartment 164 nM",73 ± 4
same,number of fibroblasts migrating to the lower surface of each filter,"fibroblasts [4]; upper compartment 0 nM, lower compartment 329 nM",86 ± 13
same,number of fibroblasts migrating to the lower surface of each filter,"fibroblasts [4]; upper compartment 21 nM, lower compartment 0 nM",20 ± 6
same,number of fibroblasts migrating to the lower surface of each filter,"fibroblasts [4]; upper compartment 21 nM, lower compartment 21 nM",9 ± 1
same,number of fibroblasts migrating to the lower surface of each filter,"fibroblasts [4]; upper compartment 21 nM, lower compartment 41 nM",49 ± 7
same,number of fibroblasts migrating to the lower surface of each filter,"fibroblasts [4]; upper compartment 21 nM, lower compartment 164 nM",46 ± 2
same,number of fibroblasts migrating to the lower surface of each filter,"fibroblasts [4]; upper compartment 21 nM, lower compartment 329 nM",67 ± 2
same,number of fibroblasts migrating to the lower surface of each filter,"fibroblasts [4]; upper compartment 41 nM, lower compartment 0 nM",31 ± 2
same,number of fibroblasts migrating to the lower surface of each filter,"fibroblasts [4]; upper compartment 41 nM, lower compartment 21 nM",28 ± 5
same,number of fibroblasts migrating to the lower surface of each filter,"fibroblasts [4]; upper compartment 41 nM, lower compartment 41 nM",26 ± 4
same,number of fibroblasts migrating to the lower surface of each filter,"fibroblasts [4]; upper compartment 41 nM, lower compartment 164 nM",47 ± 5
same,number of fibroblasts migrating to the lower surface of each filter,"fibroblasts [4]; upper compartment 41 nM, lower compartment 329 nM",57 ± 6
same,number of fibroblasts migrating to the lower surface of each filter,"fibroblasts [4]; upper compartment 164 nM, lower compartment 0 nM",14 ± 2
same,number of fibroblasts migrating to the lower surface of each filter,"fibroblasts [4]; upper compartment 164 nM, lower compartment 21 nM",11 ± 1
same,number of fibroblasts migrating to the lower surface of each filter,"fibroblasts [4]; upper compartment 164 nM, lower compartment 41 nM",16 ± 3
same,number of fibroblasts migrating to the lower surface of each filter,"fibroblasts [4]; upper compartment 164 nM, lower compartment 164 nM",22 ± 4
same,number of fibroblasts migrating to the lower surface of each filter,"fibroblasts [4]; upper compartment 164 nM, lower compartment 329 nM",43 ± 3
same,number of fibroblasts migrating to the lower surface of each filter,"fibroblasts [4]; upper compartment 329 nM, lower compartment 0 nM",16 ± 3
same,number of fibroblasts migrating to the lower surface of each filter,"fibroblasts [4]; upper compartment 329 nM, lower compartment 21 nM",10 ± 1
same,number of fibroblasts migrating to the lower surface of each filter,"fibroblasts [4]; upper compartment 329 nM, lower compartment 41 nM",9 ± 1
same,number of fibroblasts migrating to the lower surface of each filter,"fibroblasts [4]; upper compartment 329 nM, lower compartment 164 nM",12 ± 2
same,number of fibroblasts migrating to the lower surface of each filter,"fibroblasts [4]; upper compartment 329 nM, lower compartment 329 nM",8 ± 1
same,type of fibroblast migration induced (checkerboard analysis),"fibroblasts [4]; varying concentration gradients, Table I",induced mostly chemotactic migration of fibroblasts
